Test results published in ChEMBL document CHEMBL5724796, “Tm Shift (DSF) assay results for EUbOPEN Chemogenomics Library” (2024).
Where “and” joins values, the source holds several entries; their conditions need not be identical. Identical values can stand only once.

Columns and labels:
Peregrin (Homo sapiens) = molecular target: T1, Peregrin (Homo sapiens) (UniProt P55201); details: Compound concentration 20.0 uM
T1 sequence (whole entry): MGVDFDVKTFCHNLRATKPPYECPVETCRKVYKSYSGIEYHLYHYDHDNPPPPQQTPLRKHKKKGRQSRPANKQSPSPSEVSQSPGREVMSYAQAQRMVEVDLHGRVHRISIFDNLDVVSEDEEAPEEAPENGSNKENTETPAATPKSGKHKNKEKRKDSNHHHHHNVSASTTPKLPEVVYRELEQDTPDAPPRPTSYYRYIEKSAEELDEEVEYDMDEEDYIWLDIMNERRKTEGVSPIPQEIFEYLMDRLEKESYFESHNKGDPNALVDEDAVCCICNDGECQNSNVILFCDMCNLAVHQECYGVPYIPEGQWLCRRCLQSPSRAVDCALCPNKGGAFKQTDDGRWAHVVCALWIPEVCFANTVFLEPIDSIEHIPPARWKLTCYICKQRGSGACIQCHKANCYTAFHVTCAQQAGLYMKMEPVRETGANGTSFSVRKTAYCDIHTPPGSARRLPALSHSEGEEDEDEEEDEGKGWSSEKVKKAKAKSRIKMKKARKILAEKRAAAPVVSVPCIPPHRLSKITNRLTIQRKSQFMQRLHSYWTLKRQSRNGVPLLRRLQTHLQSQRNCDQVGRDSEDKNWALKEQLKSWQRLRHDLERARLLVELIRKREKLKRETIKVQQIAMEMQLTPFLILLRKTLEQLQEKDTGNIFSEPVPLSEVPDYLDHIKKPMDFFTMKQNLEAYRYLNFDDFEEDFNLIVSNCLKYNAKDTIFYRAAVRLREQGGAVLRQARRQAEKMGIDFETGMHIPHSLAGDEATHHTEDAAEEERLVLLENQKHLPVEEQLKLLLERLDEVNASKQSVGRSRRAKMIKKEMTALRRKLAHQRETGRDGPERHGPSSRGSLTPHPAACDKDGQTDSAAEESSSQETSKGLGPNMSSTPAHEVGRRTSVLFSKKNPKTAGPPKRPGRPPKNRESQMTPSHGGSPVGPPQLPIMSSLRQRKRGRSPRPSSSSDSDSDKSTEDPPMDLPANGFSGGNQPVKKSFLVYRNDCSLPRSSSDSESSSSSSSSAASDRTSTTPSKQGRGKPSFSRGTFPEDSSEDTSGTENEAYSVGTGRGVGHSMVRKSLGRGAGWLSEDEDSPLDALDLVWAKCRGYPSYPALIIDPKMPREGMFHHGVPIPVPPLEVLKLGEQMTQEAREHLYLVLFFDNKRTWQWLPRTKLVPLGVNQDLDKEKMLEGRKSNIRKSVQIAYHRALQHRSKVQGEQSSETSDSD

[1] = molecular target: Fibroblast growth factor receptor 2 (Homo sapiens) (UniProt P21802); details: Compound concentration 20.0 uM
Sequence of Fibroblast growth factor receptor 2 (Homo sapiens) (P21802 22-821 limits assumed): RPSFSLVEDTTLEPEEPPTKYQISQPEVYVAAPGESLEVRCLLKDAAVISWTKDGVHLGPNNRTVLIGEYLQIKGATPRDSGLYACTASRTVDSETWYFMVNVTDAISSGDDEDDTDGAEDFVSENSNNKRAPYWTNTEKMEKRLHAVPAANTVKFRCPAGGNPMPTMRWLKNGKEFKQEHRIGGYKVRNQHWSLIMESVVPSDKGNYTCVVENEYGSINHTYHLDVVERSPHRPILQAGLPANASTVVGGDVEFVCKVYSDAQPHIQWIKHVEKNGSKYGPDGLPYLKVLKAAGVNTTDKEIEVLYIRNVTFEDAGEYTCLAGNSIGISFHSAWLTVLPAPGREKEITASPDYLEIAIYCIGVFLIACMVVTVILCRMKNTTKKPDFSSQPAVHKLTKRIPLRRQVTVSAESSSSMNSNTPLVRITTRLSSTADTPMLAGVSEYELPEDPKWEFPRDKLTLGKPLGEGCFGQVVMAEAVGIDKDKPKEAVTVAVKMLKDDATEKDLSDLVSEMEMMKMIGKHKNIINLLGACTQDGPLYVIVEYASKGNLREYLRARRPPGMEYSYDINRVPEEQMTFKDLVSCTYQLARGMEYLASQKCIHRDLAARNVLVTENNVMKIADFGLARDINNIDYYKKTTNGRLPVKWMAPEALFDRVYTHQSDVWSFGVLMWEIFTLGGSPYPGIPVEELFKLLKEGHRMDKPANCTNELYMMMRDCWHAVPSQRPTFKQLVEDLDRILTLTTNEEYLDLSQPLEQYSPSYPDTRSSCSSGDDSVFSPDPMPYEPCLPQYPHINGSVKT

Compound	ΔTm (Peregrin (Homo sapiens))	ΔTm [1]
CCNC(=O)NCCSC[C@H]1O[C@@H](n2cnc3c(N)ncnc32)[C@H](O)[C@@H]1O	-1.31 °C	0.95 °C
CCCCNc1cc(C(=O)O)cc(S(N)(=O)=O)c1Oc1ccccc1	0.81 °C	-0.15 °C
O=c1[nH]c(CS[C@H]2CC[C@H](O)CC2)nc2cc(OCC3CC3)cc(F)c12	-0.24 °C	-0.27 °C
CN1CCN(c2cc(C(=O)Nc3ncc(SCc4cccc(C(F)(F)F)c4)s3)ccn2)CC1	-1.6 °C	0.89 °C
CCn1c(=S)[nH]c2cc3c(NCc4ccccc4N4CCC(CO)CC4)ncnc3cc21	1.64 °C	-0.06 °C
Cc1nn(CC(F)(F)F)cc1Nc1ncc(Br)c(NCc2ccc(S(N)(=O)=O)cc2)n1	-0.36 °C	2.95 °C
C[C@@H]1O[C@@H](CC(=O)O)CC2=C1C(=O)c1c(O)cccc1C2=O	0.11 °C	-0.89 °C
C=Cc1cc(C(=O)Nc2ccc(C(=N)N)cc2)c(-c2ccc(C(=O)NCC3CC3)nc2C(=O)O)cc1OC	2.91 °C	0.02 °C
CCCCCCCCCCCCCCCCNNC(=O)c1cccs1	-0.84 °C	0.53 °C
CNC(=O)N1CCc2c(c(N3CCCc4cc(-c5cnn(C)c5)c(C(F)F)cc43)nn2C2CCOCC2)C1	-0.21 °C	-0.44 °C
CNCCCN1c2ccccc2CCc2ccccc21	1.05 °C	-0.25 °C
CC(=O)N1CCc2c(c(N3CCCc4cc(-c5cnn(C)c5)c(C(F)F)cc43)nn2C2CCOCC2)C1	-1.44 °C	0.45 °C
CCC(NC(=O)C(CC(C)C)NC(=O)OCc1ccccc1)C(=O)C(=O)NCCCN1CCOCC1 (centres undefined)	-1.22 °C	1.24 °C
Cc1cc(OCc2nnc(SC3CCCC3)n2-c2cccnc2)ccc1-c1ccc(S(C)(=O)=O)cc1	-5.44 °C	-3.4 °C
O=C(NCc1ccc(Cl)cc1)C1CCN(S(=O)(=O)c2cc(Cl)cc(Cl)c2)CC1	1.09 °C	-0.34 °C
O=C1c2ccccc2C(=O)c2oc(-c3ccc(F)cc3)nc21	-0.98 °C	0.19 °C
NC(=O)[C@H]1CCCCc2c1[nH]c1ccc(Cl)cc21	0.13 °C	1.09 °C
CN1C(=O)c2c(nn(Cc3ccc(-c4cccc(F)n4)cc3)c2Nc2ccccc2)N2C1=N[C@@H]1CCC[C@@H]12	-0.45 °C	-0.21 °C
CC(=O)N1CCN([C@H]2CCC[C@@H](NC(=O)c3cc4c(F)ccc(C)c4[nH]3)C2)CC1	-1.02 °C	-2.8 °C
C[C@H](NC(=O)[C@H](Cc1ccccc1)NC(=O)OCc1ccccc1)C(=O)CF	-1.31 °C	0.14 °C
O=c1cc(-c2ccc(O)cc2)oc2c(CN3CCN(Cc4cccs4)CC3)c(O)cc(O)c12	3.1 °C	1.05 °C

Compound	ΔTm (Peregrin (Homo sapiens))	ΔTm [1]
O=C(NCCCn1ccnc1)c1cc2nc(-c3ccccc3)cc(-c3ccccc3)n2n1	-1.26 °C	0.5 °C
O=C(Cc1ccccc1)c1cc(O)c(O)c([N+](=O)[O-])c1	0.33 °C	0.57 °C
CCCc1nc(C)c2c(C)nc3ccc(OC)nc3n12	-0.07 °C	-0.53 °C
CS(=O)(=O)N1CCN(C(=O)c2cnc3ccc(Cl)cc3c2-c2ccc(C3(C#N)CC3)cc2)CC1	1.84 °C	0.34 °C
COc1cc2c(NC3CCN(C4CCCCC4)CC3)nc(N3CCCN(C(C)C)CC3)nc2cc1OCCCN1CCCCC1	-1.05 °C	0.34 °C
COC(=O)c1ccc(CN2CCC(O)(Cn3cnc4c(-c5ccc(CN)cc5)n(C)nc4c3=O)CC2)c(Cl)c1	1.55 °C	-0.37 °C
COc1cc(O)c2c(c1)/C=C\C[C@H](O)[C@H](O)C(=O)/C=C\C[C@H](C)OC2=O	-1.29 °C	2.24 °C
CC(C)CCn1c(CN2CCN(C(=O)C3CC3)CC2)nc2c1c(=O)n(C)c(=O)n2C	1.75 °C	-0.8 °C
CNc1ncc2cc(-c3cc(NC(=O)NCCC(C)(C)C)c(F)cc3C)c(C)nc2n1	-0.16 °C	5.58 °C
CCCCCCCCCCCCC/C=C/[C@@H](O)[C@H](CO)NC(=O)CCl	0.52 °C	0.03 °C
Cc1ncsc1-c1ccc([C@H](C)NC(=O)[C@@H]2C[C@@H](O)CN2C(=O)[C@@H](NC(=O)CNC(=O)c2ccc(F)c(-c3ccc(N4C[C@@H](C)N(C)[C@@H](C)C4)c(NC(=O)c4c[nH]c(=O)cc4C(F)(F)F)c3)c2)C(C)(C)C)cc1	-0.15 °C	-4.38 °C
Nc1cc(F)ccc1NC(=O)c1ccc(CNC(=O)/C=C/c2cccnc2)cc1	-0.89 °C	0.58 °C
Cn1cc(NC(=O)c2cc(F)cc(F)c2)c(C(=O)NC2CCNCC2)n1	-1.44 °C	0.66 °C
O=C(NC1CCC1)c1ccc2nc(-c3cccc(NS(=O)(=O)NCCN4CCCCC4)c3)cn2c1	1.25 °C	-0.11 °C
N#C[C@@H]1C[C@@H]2C[C@@H]2N1C(=O)[C@@H](N)C12CC3CC(CC(O)(C3)C1)C2	-0.63 °C	0.29 °C
Nc1ncnc2c1ncn2[C@@H]1O[C@H](C(=O)N2CCN(CC(=O)Nc3cccc4c3CNC4=O)CC2)[C@@H](O)[C@H]1O	-1.21 °C	0.74 °C
O=C(Oc1cccc(F)c1OC(=O)c1cccc(O)c1)c1cccc(O)c1	3.01 °C	0.56 °C
O=C(C1CC1)N1CC[C@@H](Cc2n[nH]c(=O)n2-c2ccc(-c3ccc4occc4c3)cc2)C1	-1.32 °C and 0.92 °C	0.63 °C and -0.68 °C
O=c1[nH]ccc2cc(F)c(NS(=O)(=O)c3ccc(N4CC[C@@H](O)C4)s3)cc12	-1.14 °C	0.54 °C
O=C(COc1ccc(-c2oc3cc(O)c(C(=O)O)cc3c2C#Cc2cccc(Cl)c2)cc1)NC1CC1	-1.44 °C	0.52 °C
CNCc1ccc(-c2cc3cc(F)cc(C(N)=O)c3o2)cc1	1.32 °C	0.56 °C

Compound	ΔTm (Peregrin (Homo sapiens))	ΔTm [1]
CC/C(=C(/c1ccc(/C=C/C(=O)O)cc1)c1ccc2[nH]ncc2c1)c1ccc(F)cc1Cl	0 °C	-5.4 °C
N#Cc1nc2c(nc1C#N)-c1ccccc1C2=NOCc1ccccc1	5.25 °C	0.78 °C
CN(C(=O)CCCOc1ccc2[nH]c(=O)ccc2c1)C1CCCCC1	1.74 °C	-0.58 °C
COC(=O)C1=C(C(=O)OC)[C@@]2([C@@H](Cc3ccc(C)cc3)Nc3ccccc3)C=C[C@@H]1O2	-3.55 °C	0.51 °C
NC(=S)c1cccc(-c2cn(C3CCN(S(=O)(=O)C(F)(F)F)CC3)c3cc(CNC(=O)C4CNC4)ccc23)c1	5.2 °C	0.25 °C
COc1cc2c(cc1-c1c(C)noc1C)[nH]c1nc(C)nc(Nc3cc(C4CC4)nn3C)c12	1.07 °C	-0.94 °C
COc1nc(N)nc(Nc2cc(S(N)(=O)=O)ccc2N[C@@H](c2cccc3c2OC(F)(F)O3)c2ncccc2Cl)n1	-3.63 °C	1.9 °C
CC(C)c1ccc(C(=O)N=C(N)N)cc1S(C)(=O)=O	-0.14 °C	-0.34 °C
CC(=O)N[C@@H](CC(=O)O)C(=O)N[C@@H](CCC(=O)O)C(=O)N[C@H](C(=O)N[C@H](C=O)CC(=O)O)C(C)C	-1.4 °C	-0.22 °C
COc1ccc(-c2ccc(-c3cn(C(=O)N4CCCCC4c4ccccc4)nn3)cc2)cc1 (centres undefined)	-1.62 °C	0.03 °C
CC(C)c1c(-c2ccccc2)[nH]c2c(C#N)cnn2c1=O	1.31 °C	-0.06 °C
COc1cccc(-c2nccc3c2CN(c2ccccc2)C3=O)c1	-0.63 °C	0.77 °C
CCCNC(=O)[C@H]1O[C@@H]1C(=O)N[C@H](C(=O)N1CCC[C@H]1C(=O)O)[C@@H](C)CC	-2.2 °C	0.07 °C
CCc1c(C)nc(-c2ccc(Cl)s2)nc1Nc1ccc(CC(=O)O)cc1	1.24 °C	-0.19 °C
COc1cc(C)[nH]c(=O)c1CNC(=O)c1c(C)n([C@H](C)C2CCOCC2)c2ccccc12	-1.84 °C	0.42 °C
COC(=O)[C@H]1[C@H]2C[C@@H]3c4[nH]c5cc(OC)ccc5c4CCN3C[C@H]2C[C@@H](OC(=O)c2cc(OC)c(OC)c(OC)c2)[C@@H]1OC	0.08 °C	-0.07 °C
COc1cc(O)cc(CN2CCc3c(cc(Cn4ccn(C)c4=N)cc3-c3ccc(F)cc3C)C2=O)c1	-1.15 °C	-1.31 °C
COc1cccc(OC)c1S(=O)(=O)Nc1noc2cc(Cn3cccn3)cc(OC)c12	-0.57 °C	-3.46 °C
C[C@H](NC(=O)c1cn(C2(C#N)CC2)cn1)C(=O)Nc1nc(-c2cccc(-c3ccn(C)n3)c2)cs1	-0.85 °C	0.8 °C
Cn1cc(C(=O)Nc2ccc([C@@H]3C[C@H]3NCC3CC3)cc2)cn1	0.16 °C	-0.53 °C
